What all share (format): cell-based, human
For one data set, the system named is HuH-7 cells. Put plainly: Growth inhibitory effect on cancer cells (WST assay), Example 2.3. Conditions: for IC50: HuH-7 cells, WST assay, concentrations 0-50 μM, control 0.1% DMSO; for IC50 compared with IC-2: comparison with IC-2. As for the experimental part:
HuH-7 cells, a human liver cancer cell line, were cultured on 10-cm cell culture dishes (TPP Techno Plastic Products AG, Trasadingen, Switzerland) by using DMEM under conditions at 5% CO2, 37° C., and 100% humidity. When the cells were 70 to 90% confluent, 200 μL of 0.25% Trypsin/1 mM EDTA solution, which had been prepared by diluting the stock solution 10-fold with PBS (−), was added to detach the cells. Then, the cells were centrifuged at 1000 rpm for 3 min at room temperature. The cells recovered were subcultured at a 1:4 split ratio.
First, 70 to 90% confluent HuH-7 cells were harvested and seeded (n=3) at 5×10^3 cells/well of a 96-well plate (TPP). After 24 h, each compound was added to the cells and the mixture was cultured at 37° C. The concentrations of each compound were 0, 10, 20, 30, 40, and 50 μM. For IC-2-506-1, however, the concentrations used were 0, 10, 20, 25, 30, 40, and 50 μM. Each control sample (0 μM) used was 0.1% DMSO, a solvent for each compound.
Next, 0, 24, 48, and 96 h after the compound treatment, 100 μIL of DMEM-diluted 10% Cell Counting Kit-8 (DOJINDO LABORATORIES, Kumamoto) was added. The mixture was incubated at 37° C. for 60 min and its absorbance (at a measurement wavelength of 450 nm/control wavelength of 600 nm) was measured by using a Sunrise Rainbow RC (Tecan Group Ltd., Mannedorf, Switzerland). Absorbance for the cells alone was calculated by subtracting, from the reading obtained, absorbance for 10% Cell Counting Kit-8 alone.
The “*” in figures indicates a significant difference of p<0.05 between 0.1% DMSO and each compound; and the “**” indicates a significant difference of p<0.01 (the same applies to all the figures in Examples).

In a further data set the test system is LX-2 cells. Put plainly: Anti-fibrosis effect, summary statements on Example 3 (marker not specified). An excerpt:
α-Smooth muscle actin (α-SMA), a fibrosis marker, was used as an indicator, and RNA was collected from LX-2 cells treated with each low-molecular-weight compound. Next, an inhibitory effect on fibrosis was examined by real-time RT-PCR.
In addition, instead of α-SMA, another fibrosis marker collagen, type I, alpha 1 (COL1A1) was used as an indicator, and substantially the same protocol was repeated. The concentrations of each compound used were as described in FIG. 34. Each control sample used was 0.1% DMSO, a solvent for each compound. Here, COL1A1 primers used were 5′-CCT CCA GGG CTC CAA CGA G-3′ and 5′-TCAATCACTGTCTTGCCCCA-3′. The annealing was performed at 58° C. for 5 sec. The measurement results were obtained by dividing the calculated value for the COL1A1 gene by the calculated value for the GAPDH gene.

A further data set deals with mesenchymal stem cell. Put plainly: Hepatocyte differentiation-inducing effect, summary statements on Example 4 (readout not specified). The text has this: Albumin, a hepatocyte marker, was used as an indicator, and RNA was collected from cells treated with each compound. Next, a hepatocyte differentiation-inducing effect was examined by real-time RT-PCR. The concentrations of the respective compounds were as described in FIG. 35. Each control sample used was 0.1% DMSO, a solvent for each compound.
By using urea synthesis, a hepatocyte function, as an indicator, a hepatocyte differentiation-inducing effect of each compound was investigated.
The cells treated with each compound were subjected to immunofluorescence analysis of albumin, a hepatocyte marker, to investigate a hepatocyte differentiation-inducing effect. The concentrations of the respective compounds were as described in FIG. 37. Each control sample used was 0.1% DMSO, a solvent for each compound.
By using glycogen synthesis, a hepatocyte function, as an indicator, a hepatocyte differentiation-inducing effect of each compound was investigated.

Data set [1] concerns Wnt/β-catenin signaling. The data set is described as follows: Inhibitory effect on Wnt/β-catenin signaling in liver stellate cells (LX-2, TCF4 luciferase). Conditions: concentration equal to or lower than that of IC-2. As for the experimental part: While each compound was added at concentrations where the cell growth of fibrosis-causing liver stellate LX-2 cells was reduced to about 50 to 80%, Wnt/β-catenin signaling activity was measured. […] The concentrations of the respective compounds were as described in FIG. 41. Each control sample used was 0.1% DMSO, a solvent for each compound.
LX-2 cells, which were cultured and maintained by using 10% FBS/DMEM, were harvested and seeded (n=3) in 1% FBS/DMEM at 4.0×10^4 cells per well of a 24-well plate. Next, 25 μL of Opti-MEM (Gibco, Life Technologies Corp., Carlsbad, Calif.) containing 50 ng of pTCF4-CMVpro-GL4.20, having 3 copies of TCF motifs (CCT TTG ATC) upstream of a CMV promoter in a multiple cloning site of pGL4.20 (Promega), and 5 ng of pRL-CMV Vector (Promega) and 25 μL of Opti-MEM containing 0.4 μL of Lipofectamine 2000 (Invitrogen, Life Technologies Corp., Carlsbad, Calif.) were mixed and incubated at room temperature for 20 min. At 20 h after the cell seeding, the mixture was added to each well, so that both reporter plasmids were transiently transfected into the cells. After additional 4 h, 2.5 ng/mL of TGF-β and each compound were added to the cells and the mixture was cultured at 37° C.
At 24 and 48 h after the compound treatment, the culture medium was discarded, and 100 μL of room temperature 5×Passive Lysis Buffer (PLB), which had been diluted 5-fold with MilliQ water, was added to each well. Next, the plate was shaken at room temperature for 15 min and was then frozen at −30° C. overnight. A Luciferase Assay Substrate was diluted with 10 mL of room temperature Luciferase Assay Buffer II to prepare Luciferase Assay Reagent II (LARII). Then, 1 μL of Stop&Glo Substrate was diluted with 49 μL of room temperature Stop&Glo Buffer to prepare Stop&Glo (Promega) in a quantity enough for samples.
The frozen PLB lysate samples were thawed and permeabilized for 15 min. After that, 50 μl aliquots of LARII were dispensed into 3.5 mL test tubes (Sarstedt, AG & Co., Numbrecht, Germany) and 10 μL of each frozen PLB lysate sample was added and mixed well. Subsequently, luminescence was quantified by using a MiniLumat LB 9506 (Berthold Technologies GmbH & Co, Bad Wildbad, Germany) to measure firefly luciferase activity. After the measurement, 50 μL of Stop&Glo was added and mixed well and luminescence was then quantified by using the MiniLumat LB 9506 to determine Renilla luciferase activity. The measurement results were obtained by dividing the firefly luciferase activity by the Renilla luciferase activity.

For data set [2], the system named is Wnt/β-catenin signaling. The data set is described as follows: Inhibitory effect on Wnt/β-catenin signaling in liver cancer cells (HuH7-TCF4 luciferase). Conditions: concentration equal to or lower than that of IC-2. As for the experimental part: A pTCF4-CMVpro-GL4.20 plasmid vector, which had been constructed by inserting 3 copies of TCF4 motifs (CCT TTG ATC) upstream of a CMV promoter into a multiple cloning site of pGL4.20 (Promega Corp., Fitchburg, Wis.), was linearized and stably transfected into the HuH-7 cells. The resulting stable cells (HuH7-TCF4 cells) and HuH-7 cells were likewise cultured.
While each compound was added at concentrations where the growth of HuH-7 cells was reduced to about 50% or less, Wnt/β-catenin signaling activity was measured. The concentrations of the respective compounds were as described in FIG. 40. Control samples used were 0.1% DMSO, a solvent for each compound, and 0.5 μM 5-FU.
First, 70 to 90% confluent HuH7-TCF4 cells were harvested and seeded (n=3) at 5.0×10^4 cells/well of a 24-well plate (TPP). After 24 h, each compound was added to the cells and the mixture was cultured at 37° C.
At 48 h after the compound treatment, the culture medium was discarded, and 100 μL of room temperature 5×Passive Lysis Buffer (PLB) (Promega Corp., Fitchburg, Wis.), which had been diluted 5-fold with MilliQ water, was added to each well. Next, the plate was shaken at room temperature for 15 min and was then frozen at −30° C. overnight. A Luciferase Assay Substrate was diluted with 10 mL of room temperature Luciferase Assay Buffer II to prepare Luciferase Assay Reagent II (LARII) (Promega). The frozen PLB lysate samples were thawed and permeabilized for 15 min. Then, 10 μL aliquots were added to wells of a 96-well white plate (Corning Inc., Corning, N.Y.). While 50 μL aliquots of LARII were each added to each well, luminescence was quantified by using a 1420 multi-label counter ARVO MX (PerkinElmer Singapore Pte Ltd., Singapore) to determine firefly luciferase activity. Note that a significant difference was evaluated by using (two-tailed) Student's t-test. The “*” in figures indicates a significant difference of p<0.05 between 0.1% DMSO and each compound; and the “**” indicates a significant difference of p<0.01 (the same applies to all the figures in Examples).

As to `O=C1C(Cc2ccccc2)N2C(=O)CCN(C(=O)NCc3ccccc3)C2CN1Cc1ccc(Cl)cc1Cl` (stereo not drawn) [IC-2-506-2], in the data set with HuH-7 cells, the IC50 was determined as 25.6 µM and the “IC50 compared with IC-2” value was “lower IC50 than IC-2”. In addition, the “anti-fibrosis effect compared with IC-2, equal or higher concentration” value in the data set with LX-2 cells (concentration equal to or higher than that of IC-2) is “more potent anti-fibrosis effect”. The “hepatocyte-inducing effect compared with IC-2” value with mesenchymal stem cell (concentration higher than that of IC-2) is listed as “more potent hepatocyte-inducing effect”. The “inhibitory effect on Wnt/β-catenin signaling pathway in liver stellate cells compared with IC-2” value in the data set with Wnt/β-catenin signaling [1] is on record as “more potent inhibitory effect”.
On to `O=C1C(Cc2ccccc2)N2C(=O)CCN(C(=O)NCc3ccc(Cl)cc3)C2CN1Cc1cccc2ccccc12` (stereo not drawn) [IC-2-Cl], for which, in the data set on HuH-7 cells, the IC50 came out at 14.4 µM and the “IC50 compared with IC-2” value is reported as “lower IC50 than IC-2”. Further, the “anti-tumor effect compared with IC-2” value with HuH-7 cells (at a concentration lower than that of IC-2) is listed as “more potent anti-tumor effect”. Further, the “anti-fibrosis effect compared with IC-2, lower concentration” value in the data set on LX-2 cells (concentration even lower than that of IC-2) is “more potent anti-fibrosis effect”. Moreover, the “hepatocyte-inducing effect at low concentration” value in the data set with mesenchymal stem cell (low concentration) was “exerted a hepatocyte-inducing effect”. The “inhibitory effect on Wnt/β-catenin signaling pathway in liver cancer cells compared with IC-2” value in the data set on Wnt/β-catenin signaling [2] is “more potent inhibitory effect”. Moreover, the “inhibitory effect on Wnt/β-catenin signaling pathway in liver stellate cells compared with IC-2” value in the data set on Wnt/β-catenin signaling [1] was “more potent inhibitory effect”.

Source of the values: patent US10597398B2, “Suppression and regeneration promoting effect of low molecular weight compound on cancer and fibrosis” (NATIONAL UNIVERSITY CORPORATION TOTTORI UNIVERSITY, priority 2015, dated 2020).
